Assay results taken from US20090202428A1, “Use of Dtbz for Imaging Endocrine Pancreas and Beta Cell Mass In Type 1 Diabetes” (priority 2005, published 2009).

Tests used:
[1] = target: T1, VMAT2 expressed by β-cells of the endocrine pancreas (Rattus norvegicus, UniProt Q01827); experiment: PET imaging with [11C]DTBZ of normal and STZ induced diabetic Lewis rats; assay type: in vivo
T1 construct: The inventors next targeted VMAT2 expressed by β-cells of the endocrine pancreas with [11C]; DTBZ; from tissue; host or cells: pancreas (beta cells of the islets) of living Lewis rats, normal and STZ-induced diabetic
T1 sequence (Q01827 whole entry): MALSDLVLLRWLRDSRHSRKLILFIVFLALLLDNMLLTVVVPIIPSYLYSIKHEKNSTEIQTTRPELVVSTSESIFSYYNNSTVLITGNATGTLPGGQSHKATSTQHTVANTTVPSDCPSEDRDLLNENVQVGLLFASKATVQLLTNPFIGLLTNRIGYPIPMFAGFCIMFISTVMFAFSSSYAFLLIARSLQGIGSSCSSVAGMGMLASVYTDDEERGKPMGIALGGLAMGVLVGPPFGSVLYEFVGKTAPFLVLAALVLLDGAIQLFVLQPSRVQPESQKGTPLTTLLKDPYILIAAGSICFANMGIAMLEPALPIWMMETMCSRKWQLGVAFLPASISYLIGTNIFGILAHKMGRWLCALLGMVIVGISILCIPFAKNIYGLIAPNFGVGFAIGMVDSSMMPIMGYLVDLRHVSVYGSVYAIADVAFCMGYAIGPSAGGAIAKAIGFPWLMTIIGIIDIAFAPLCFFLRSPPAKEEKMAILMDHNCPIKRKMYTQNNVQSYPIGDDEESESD
Experimental: Specific activities of carbon-11 labeled radiotracers were >2000 mCi/μmol at the time of injection.
STZ solution was prepared fresh by dissolving it in 0.1 M citrate buffer (pH 5.5) and terminally sterile filtered. Age and weight-matched control rats were injected with citrate buffer alone.
PET scans were performed on four normal and three diabetic adult rat subjects. Prior to imaging, the animals were anesthetized with intraperitoneal injections of ketamine and xylazine. After a whole-body transmission scan had been obtained (used to perform attenuation correction of the emission data), the radioligand was taken up in a sterile saline vehicle and 200-300 μCi of [11C] DTBZ was administered in a bolus injection via the penile vein. PET scans of the animals were acquired dynamically to 60 min postinjection on a Concorde microPET-R4 (CTI Molecular Imaging, Knoxville, Tenn., USA). The scanner provided a 100×80 mm field of view with a reconstructed resolution of 2.25 mm in the central 40 mm of the field of view. PET data were processed using attenuation correction matrix obtained by transmission scans and images were reconstructed using Fourier re-binning, followed by two-dimensional, filtered back projection. […]

VMAT2 = settings: previous studies (Scherman et al.); cited from earlier work
[2] = tested on: islet membranes (purified human islets); experiment: binding of [3H]DTBZ to total membrane fractions from purified human islets
From the text: (§1) Previous studies, at both protein and nucleic acid levels, have shown the underlying physiochemical basis for this functional similarity (Atouf, et al, 1997, Expression of neuronal traits in pancreatic beta cells. Implication of neuron-restrictive silencing factor/repressor element silencing transcription factor, a neuron-restrictive silencer, J Biol Chem 272:1929-1934, Bernal-Mizrachi, et al, 2003, Gene expression profiling in islet biology and diabetes research, Diabetes Metab Res Rev 19:32-42, and […] al, 1996, Differentiation and growth of pancreatic beta cells, Diabetes Metab 22:223-228). The inventors own gene expression mapping studies led them to focus on one such shared gene product, VMAT2, vesicular monoamine transporter type 2, expressed by β-cells, but absent from the exocrine pancreas and a variety of-the other abdominal organs ([…], et al, 2004, Identification of tissue-restricted transcripts in human islets, Endocrinology 145:4513-4521). A specific ligand for VMAT2, dihydrotetrabenazine (DTBZ) is already in clinical use for positron emission tomography (PET) imaging of central nervous system disorders (Vander Borght, et al, 1995, In vivo imaging of the brain vesicular monoamine transporter, J Nucl Med 36:2252-2260). The inventors studied the binding of [3H]DTBZ to total membranes fractions prepared from purified human islets and purified exocrine pancreas tissue.

[3] = tested on: membranes from the exocrine pancreas; experiment: binding of [3H]DTBZ to total membrane fractions from purified exocrine pancreas tissue; design: species or system human
From the text: as §1

endocrine pancreas = experiment: serial PET imaging with [11C]DTBZ in the spontaneously diabetic BB-DP rat model; assay type: in vivo; settings: series of ten BB-DP rats, compared with IPGTT
Experimental: Blood samples were collected from the rat tail vein. The blood glucose (BG) levels of the rats were monitored daily using an Accu-Check blood glucose monitoring system (Roche Diagnostics, Somerville, N.J.). […] After baseline BG measurements, animals received an intraperitoneal injection of 1 g glucose/kg body wt. BG concentrations were measured again 5, 10, 15, 30, 60, and 120 min later. Animals were considered diabetic when four consecutive BG values were above 300 mg/dL and had abnormal IPGTT responses. Animals were imaged at baseline before the development of diabetes at day 45.
PET scans were performed serially on the study subject at approximately day 50 and then every two weeks until the animals developed stable diabetes. Prior to imaging, the animals were anesthetized with intrapertioneal injections of ketamine and xylazine. After a whole-body transmission scan had been obtained (used to perform attenuation correction of the emission data), the radioligand was taken up in a sterile saline vehicle and 200-300 μCi of [11C] DTBZ was administered in a bolus injection via the penile vein. PET scans of the animals were acquired dynamically to 60 min post injection on a Concorde microPET-R4 (CTI Molecular Imaging, Knoxville, Tenn., USA). The scanner provided a 100×80 mm field of view with a reconstructed resolution of 2.25 mm in the central 40 mm of the field of view. […]

For `COc1cc2c(cc1OC)[C@H]1C[C@@H](O)[C@H](CC(C)C)CN1CC2` [DTBZ, dihydrotetrabenazine], the “DTBZ uptake in gastric and splenic regions of the pancreas compared to the head of the organ” value ([1]; normal rat pancreata, PET) is listed as “higher”, the “time post-injection up to which pancreatic DTBZ uptake increased monotonically” value ([1]; normal rat, 60 min imaging period, from 1 minute) is listed as “about 50 minutes” and the “target specificity of DTBZ” value (VMAT2) is listed as “specifically targets VMAT2”.
In the case of `COc1cc2c(cc1OC)[C@H]1C[C@@H](O)[C@H](CC(C)C)CN1CC2` [[3H]DTBZ], the “binding of [3H]DTBZ to islet membranes” value [2] is reported as “specifically bound” and the “binding of [3H]DTBZ to membranes from the exocrine pancreas” value [3] is reported as “not”.
With `COc1cc2c(cc1O[11CH3])CCN1CC(CC(C)C)C(O)CC21` (stereo not drawn) [[11C]DTBZ, [11C] dihydrotetrabenazine] the “reduction of [11C]DTBZ uptake that resulted in signs of glucose intolerance and hyperglycemia” value (endocrine pancreas) was “approximately 50%”.
